Source: ChEMBL document CHEMBL1201862, “PubChem BioAssay data set” (2004)
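Each compound was tested at five concentrations against cells in 96-well plates for 48 hours. GI50: concentration for 50% inhibition of growth.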 Calls of active or inactive are those of the source. Cut-off read from the data, not from the text of the source: active = GI50 up to about 1.1 µM and inactive = higher.

Tests used:
Test in all cases: NCI-60 cell line screen, 48 h
[1] = system: U-251
[2] = system: UACC-257
[3] = system: MDA-MB-231
[4] = system: Malme-3M
[5] = system: PC-3
[6] = system: SK-MEL-5
[7] = system: HCC 2998
[8] = system: HOP-62
[9] = system: NCI-H460
[10] = system: SK-MEL-2
[11] = system: RPMI-8226
[12] = system: NCI/ADR-RES
[13] = system: SN12C
[14] = system: LOX IMVI
[15] = system: IGROV-1
[16] = system: K562
[17] = system: CAKI-1
[18] = system: SW-620
[19] = system: HCT-15
[20] = system: ACHN

Row | SMILES | GI50 [1] | GI50 [2] | GI50 [3] | GI50 [4] | GI50 [5] | GI50 [6] | GI50 [7] | GI50 [8] | GI50 [9] | GI50 [10] | GI50 [11] | GI50 [12] | GI50 [13] | GI50 [14] | GI50 [15] | GI50 [16] | GI50 [17] | GI50 [18] | GI50 [19] [µM] | GI50 [20]
1 | C/C(=C\[C@H]1C[C@@H]([C@@H]2CC[C@]34C[C@]23C=C[C@@H]2[C@@]3(C)CC=C5C[C@@H](c6ccccc6)OC[C@]5(C)[C@@H]3C[C@@H](O)[C@]24C)C(=O)O1)CO [DICHAPETALIN A] | 1.04 µM (active) | 1.96 µM (inactive) | 5.35 µM (inactive) | 3.56 µM (inactive) | 2.64 µM (inactive) | 0.286 µM (active) | 6 µM (inactive) | 10.2 µM (inactive) | 0.721 µM (active) | 31.4 µM (inactive) | 0.624 µM (active) | 3.08 µM (inactive) | 1.91 µM (inactive) | 1.52 µM (inactive) | 2.92 µM (inactive) | 0.553 µM (active) | 2.08 µM (inactive) | 2.72 µM (inactive) | 4.38 | 3.33 µM (inactive)
2 | Cc1nnc(N2C(=O)C(=Cc3ccc(Cl)cc3)N=C2c2ccc(Cl)cc2)nc1/C=C\c1ccc(N(C)C)cc1 | > 100 µM (inactive) | > 100 µM (inactive) | > 100 µM (inactive) | > 100 µM (inactive) | > 100 µM (inactive) | > 100 µM (inactive) | > 100 µM (inactive) | > 100 µM (inactive) | > 100 µM (inactive) | > 100 µM (inactive) | 72.3 µM (inactive) | > 100 µM (inactive) | > 100 µM (inactive) | > 100 µM (inactive) | > 100 µM (inactive) | 73.3 µM (inactive) | > 100 µM (inactive) | > 100 µM (inactive) | > 100 | > 100 µM (inactive)
3 | N#CC1CCN2N=C(c3ccccc3)SC12c1ccccc1 (stereo not given) | 44 µM (inactive) | 39.3 µM (inactive) | > 100 µM (inactive) | > 100 µM (inactive) | 35.7 µM (inactive) | 34.4 µM (inactive) | 26.7 µM (inactive) | > 100 µM (inactive) | 26.1 µM (inactive) | 53.3 µM (inactive) | 26.3 µM (inactive) | 32.9 µM (inactive) | 40.4 µM (inactive) | 51.9 µM (inactive) | > 100 µM (inactive) | 28.6 µM (inactive) | 35.4 µM (inactive) | 39.4 µM (inactive) | 38.5 | 21.1 µM (inactive)
4 | O=C(O)CNCc1c2ccccc2nc2ccccc12 | 60 µM (inactive) | 34.1 µM (inactive) | 43 µM (inactive) | > 74.5 µM (inactive) | 27.2 µM (inactive) | 25.7 µM (inactive) | 58.6 µM (inactive) | 43.9 µM (inactive) | 39.2 µM (inactive) | 50.8 µM (inactive) | 8.43 µM (inactive) | 26.5 µM (inactive) | 44.4 µM (inactive) | 28.3 µM (inactive) | 45.9 µM (inactive) | 8.85 µM (inactive) | 35.7 µM (inactive) | 26.4 µM (inactive) | 34.4 | 31.1 µM (inactive)
5 | O=S(=O)(O)c1ccc(/N=N/c2ccc(/N=N/c3c(O)ccc4ccccc34)cc2)cc1 | > 100 µM (inactive) | > 100 µM (inactive) | > 100 µM (inactive) | 35.6 µM (inactive) | > 100 µM (inactive) | > 91.8 µM (inactive) | > 100 µM (inactive) | > 100 µM (inactive) | > 100 µM (inactive) | > 100 µM (inactive) | > 100 µM (inactive) | > 100 µM (inactive) | > 100 µM (inactive) | > 100 µM (inactive) | 38.6 µM (inactive) | > 100 µM (inactive) | > 100 µM (inactive) | > 100 µM (inactive) | > 100 | > 100 µM (inactive)
6 | COC(=O)c1sc2ncc3c(c2c1N)CC(C)CC3 (stereo not given) | > 100 µM (inactive) | > 100 µM (inactive) | > 100 µM (inactive) | > 100 µM (inactive) | > 100 µM (inactive) | > 100 µM (inactive) | > 100 µM (inactive) | > 100 µM (inactive) | > 100 µM (inactive) | > 100 µM (inactive) | > 100 µM (inactive) | > 100 µM (inactive) | > 100 µM (inactive) | 71.3 µM (inactive) | > 100 µM (inactive) | > 100 µM (inactive) | > 100 µM (inactive) | > 100 µM (inactive) | > 100 | > 100 µM (inactive)
7 | C=CCOc1ccc2c(C)cc(=O)oc2c1C | 54.2 µM (inactive) | > 100 µM (inactive) | 32.2 µM (inactive) | > 100 µM (inactive) | 35.3 µM (inactive) | 32.4 µM (inactive) | 33 µM (inactive) | > 100 µM (inactive) | 53.8 µM (inactive) | > 100 µM (inactive) | 35.5 µM (inactive) | 46.8 µM (inactive) | 98.4 µM (inactive) | 43.8 µM (inactive) | 63 µM (inactive) | 52.5 µM (inactive) | 24.1 µM (inactive) | 67 µM (inactive) | 42.8 | 51.8 µM (inactive)
8 | O=S(=O)(Nc1nc2ccccc2nc1N1CCCCCC1)c1ccccc1 | 18.6 µM (inactive) | 24.5 µM (inactive) | > 100 µM (inactive) | 25.4 µM (inactive) | 19.4 µM (inactive) | 14.3 µM (inactive) | 11.8 µM (inactive) | 23 µM (inactive) | 15.7 µM (inactive) | 16.3 µM (inactive) | 48.2 µM (inactive) | 25.8 µM (inactive) | > 100 µM (inactive) | > 100 µM (inactive) | 20.8 µM (inactive) | > 100 µM (inactive) | > 100 µM (inactive) | 22.7 µM (inactive) | 17.2 | 21.1 µM (inactive)
9 | CC(=O)C(C)CCOC1(C)OCCC1C (stereo not given) | > 100 µM (inactive) | > 100 µM (inactive) | > 100 µM (inactive) | > 100 µM (inactive) | > 100 µM (inactive) | > 100 µM (inactive) | > 100 µM (inactive) | > 100 µM (inactive) | > 100 µM (inactive) | > 100 µM (inactive) | > 100 µM (inactive) | > 100 µM (inactive) | > 100 µM (inactive) | > 100 µM (inactive) | > 100 µM (inactive) | > 100 µM (inactive) | > 100 µM (inactive) | > 100 µM (inactive) | > 100 | > 100 µM (inactive)
10 | O=C1NCC(NC(=O)C(F)(F)F)c2c(Br)sc(Br)c21 (stereo not given) | > 100 µM (inactive) | > 100 µM (inactive) | > 100 µM (inactive) | > 100 µM (inactive) | > 100 µM (inactive) | > 100 µM (inactive) | > 100 µM (inactive) | > 100 µM (inactive) | > 100 µM (inactive) | > 100 µM (inactive) | > 100 µM (inactive) | > 100 µM (inactive) | > 100 µM (inactive) | > 100 µM (inactive) | > 100 µM (inactive) | > 100 µM (inactive) | > 100 µM (inactive) | > 100 µM (inactive) | > 100 | > 100 µM (inactive)
